Test results from EP2719280A1, “Use of N-phenylethylpyrazole carboxamide derivatives or salts thereof for resistance management of phytopathogenic fungi” (priority 2012, dated 2014).

Legend:
[1] = test system: Alternaria alternata SDH-mutants; details: boscalid-resistant isolates carrying SDH- mutations; in vitro; cited from earlier work
[2] = test system: Corynespora cassiicola (CORYCA); experiment: In vitro microtiter plate assay, mycelial growth determined photometrically at 620nm; format: cell-based; details: 400 spores&mycelia / well; for after 3 days EC50 [ppm]: 3 days after inoculation; for after 5 days EC50 [ppm]: 5 days after inoculation; for after 7 days EC50 [ppm]: 7 days after inoculation
Experimental: (§1) In Vitro-activity against various strains of Corynespora cassiicola and Botrytis cinerea resistant to SDHIs
Pathogen: Corynespora cassiicola (CORYCA) originating from cucurbits in Florida (US) • 1. sensitive strain (S011/12) • 2. resistant strain S1 • 3. resistant strain S2
Spores and mycelia of isolates of Corynespora cassiicola used in the microtiter plate assays were received from four weeks old cultures grown on PDA at 20 °C under black light. Spores and mycelia in steril water were used to inoculate the growth medium with 400 spores/mycelia per well. In the microtiter plate assay potato dextrose broth (PDB) was used as growth medium containing 25 mg/L Enrofloxacin. All isolates were tested with the following concentrations of boscalid and compound (1-1): 0 (control) 0.0064, 0.032, 0.16, 0.8, 4, 20 and 100 ppm. 96-well microplates were prepared in the following way: at first, 10 µl methanol (80 %) containing the amount of active ingredient required per concentration, was added to the cavities. After evaporation of the solvent and one day prior to inoculation, 140 ul growth medium was added to each well and the plate was stirred for at least two hours on a shaker. Then, 60 ul of the spore suspension, prepared as described above, were given into each cavity. The plates were incubated at 300 rpm on a shaker for 7 days at 24°C. Mycelia growth was determined photometrically at 620nm, three, five and seven days after inoculation. EC50 values were calculated according to the extinction values.

[3] = test system: Botrytis cinerea (BOTRCI); experiment: as above; format: cell-based; details: succinate medium; for after 4 days EC50 [ppm]: 4 days after inoculation; for after 6 days EC50 [ppm]: 6 days after inoculation
Experimental: as §1
Pathogen: Botrytis cinerea (BOTRCI) sampled in European vineyards • 1. sensitive strain B047 • 2. resistant strain B 1 • 3. resistant strain B2 • 4. resistant strain B3 • 5. resistant strain B4 • 6. resistant strain B5 • 7. resistant strain B6
Conidia of isolates of Botrytis cinerea included in the microtiter plate assay were received from cultures grown at 20°C under black light for eight days. Conidia in steril water were used to inoculate the growth medium with 20.000 spores/well. Liquid succinate medium + 40 mg/L Enrofloxacin were used as growth medium. All isolates were tested with the following concentrations of boscalid and compound (1-1): 0 (control) 0.00192, 0.0096, 0.048, 0.24, 1.2, 6 and 30 ppm. 96-well microplates were prepared in the following way: at first, 10 µl methanol (80 %) containing the amount of active ingredient required per concentration, was added to the cavities. After evaporation of the solvent and one day prior to inoculation, 100 ul growth medium was added to each well and the plate was stirred for at least two hours on a shaker. Then, 100 ul of the spore suspension, prepared as described above, were given into each cavity. The plates were incubated at 300 rpm on a shaker for 6 days at 20°C. Mycelia growth was determined photometrically at 620nm, four and six days after inoculation. EC50 values were calculated according to the extinction values.

| SMILES | mycelial growth [1] | after 3 days EC50 [ppm] ([2]; isolate S011/12 (sensitive)) | after 5 days EC50 [ppm] ([2]; isolate S011/12 (sensitive)) | after 7 days EC50 [ppm] ([2]; isolate S011/12 (sensitive)) | after 3 days EC50 [ppm] ([2]; resistant strain S1) | after 5 days EC50 [ppm] ([2]; resistant strain S1) | after 7 days EC50 [ppm] ([2]; resistant strain S1) | after 3 days EC50 [ppm] ([2]; resistant strain S2) | after 5 days EC50 [ppm] ([2]; resistant strain S2) | after 7 days EC50 [ppm] ([2]; resistant strain S2) | after 4 days EC50 [ppm] ([3]; resistant strain B1) | after 6 days EC50 [ppm] ([3]; resistant strain B1) | after 4 days EC50 [ppm] ([3]; resistant strain B2) | after 6 days EC50 [ppm] ([3]; resistant strain B2) | after 4 days EC50 [ppm] ([3]; resistant strain B3) | after 6 days EC50 [ppm] ([3]; resistant strain B3) | after 4 days EC50 [ppm] ([3]; resistant strain B4) | after 6 days EC50 [ppm] ([3]; resistant strain B4) | after 4 days EC50 [ppm] ([3]; resistant strain B5) | after 6 days EC50 [ppm] ([3]; resistant strain B5) | also measured |
| --- | --- | --- | --- | --- | --- | --- | --- | --- | --- | --- | --- | --- | --- | --- | --- | --- | --- | --- | --- | --- | --- |
| O=C(NCCc1ncc(C(F)(F)F)cc1Cl)c1ccccc1C(F)(F)F [fluopyram] | strongly inhibited |  |  |  |  |  |  |  |  |  |  |  |  |  |  |  |  |  |  |  |  |
| COC(c1ccc(Cl)cc1Cl)C(C)NC(=O)c1cn(C)nc1C(F)F (stereo not drawn) [Compound (1-1), 3-difluoromethyl-1-methyl-1H-pyrazole-4-carboxylic acid [2-(2,4-dichlorophenyl)-2-methoxy-1-methyl-ethyl]-amide] |  | 0,106 ppm | 0,368 ppm | 0,341 ppm | 1,204 ppm | 1,971 ppm | 1,635 ppm | 2,583 ppm | 7,653 ppm | 10,162 ppm | 4,449 ppm | 6,467 ppm | 2,759 ppm | 3,073 ppm | 1,762 ppm | 1,798 ppm | 2,166 ppm | 1,905 ppm | 14,663 ppm | 18,965 ppm | after 4 days EC50 [ppm] ([3]; resistant strain B6): 0,875 ppm; after 6 days EC50 [ppm] ([3]; resistant strain B6): 1,390 ppm; after 4 days EC50 [ppm] ([3]; sensitive strain B047): 0,288 ppm; after 6 days EC50 [ppm] ([3]; sensitive strain B047): 0,290 ppm |
| O=C(Nc1ccccc1-c1ccc(Cl)cc1)c1cccnc1Cl [Boscalid] |  | 0,519 ppm | 1,387 ppm | 1,225 ppm | >100 ppm | >100 ppm | >100 ppm | >100 ppm | >100 ppm | >100 ppm | >30 ppm | >30 ppm | >30 ppm | >30 ppm | >30 ppm | >30 ppm | >30 ppm | >30 ppm | >30 ppm | >30 ppm | after 4 days EC50 [ppm] ([3]; resistant strain B6): >30 ppm; after 6 days EC50 [ppm] ([3]; resistant strain B6): >30 ppm; after 4 days EC50 [ppm] ([3]; sensitive strain B047): 0,286 ppm; after 6 days EC50 [ppm] ([3]; sensitive strain B047): 0,317 ppm |
| CC(C)CC(C)c1sccc1NC(=O)c1cn(C)nc1C(F)(F)F (stereo not drawn) [penthiopyrad] | not affected |  |  |  |  |  |  |  |  |  |  |  |  |  |  |  |  |  |  |  |  |
